# Assay results as given in patent US20190093170A1, “USE OF TRANSLATIONAL PROFILING TO IDENTIFY TARGET MOLECULES FOR THERAPEUTIC TREATMENT” (THE REGENTS OF THE UNIVERSITY OF CALIFORNIA, priority 2013, published 2019).
# Test system: PC3 human prostate cancer cells
# Assay: RNA-seq mRNA abundance (part of ribosome profiling experiment);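 further: average poly(A) RNA-seq read density per codon over the coding sequence, excluding 15 initial and 5 final codons, mapped to hg19 transcripts, taken as mRNA abundance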
# Format: cell-based
# Details: for PP242 mRNA: 3-hour treatment with PP242 (2.5 μM) in PC3 cells
# Description: Cells were subsequently treated with cycloheximide (100 μg ml^−1; Sigma) and detergent lysis was performed in the dish. The lysate was treated with DNase and clarified, and a sample was taken for RNA-seq analysis. Lysates were subjected to ribosome footprinting by nuclease treatment. Ribosome-protected fragments were purified, and deep sequencing libraries were generated from these fragments, as well as from poly(A) mRNA purified from non-nuclease-treated lysates. These libraries were analyzed by sequencing on an Illumina GAII.
# Ribosome footprint and RNA-seq sequencing reads were aligned against a library of transcripts from the UCSC Known Genes database GRCh37/hg19. The first 25 nucleotides of each read were aligned using Bowtie and this initial alignment was then extended to encompass the full fragment-derived portion of the sequencing read while excluding the linker sequence. Read density profiles were then constructed for the canonical transcript of each gene, using only reads with 0 or 1 total mismatches between the read sequence and the reference sequence, comprised of the transcript fragment followed by the linker sequence. Footprint reads were assigned to an A site nucleotide at position +15 to +17 of the alignment, based on the total fragment length; mRNA reads were assigned to the first nucleotide of the alignment. The average read density per codon was then computed for the coding sequence of each transcript, excluding the first 15 and last 5 codons, which can display atypical ribosome accumulation.
# Average read density was used as a measure of mRNA abundance (RNA-seq reads) and of protein synthesis (ribosome profiling reads). For most analyses, genes were filtered to require at least 256 reads in the relevant RNA-seq samples. Translational efficiency was computed as the ratio of ribosome footprint read density to RNA-seq read density, scaled to normalize the translational efficiency of the median gene to 1.0 after excluding regulated genes (log 2 fold-change+1.5 after normalizing for the all-gene median). Changes in protein synthesis, mRNA abundance and translational efficiency were similarly computed as the ratio of read densities between different samples, normalized to give the median gene a ratio of 1.0. This normalization corrects for differences in the absolute number of sequencing reads obtained for different libraries.
structure (smiles),measurement,setting,value
CC(C)n1nc(-c2cc3cc(O)ccc3[nH]2)c2c(N)ncnc21 [PP242],PP242 mRNA,gene ACD,0.20
same,mRNA,gene ACTG1,0.28
same,mRNA,gene AGRN,0.50
same,mRNA,gene ALKBH7,0.51
same,mRNA,gene AP2A1,0.42
same,mRNA,gene ARD1A,0.03
same,mRNA,gene ATP5G2,0.17
same,PP242 mRNA,gene C17orf28,0.21
same,mRNA,gene C21orf66,−0.31
same,PP242 mRNA,gene CCNA1,−0.33
same,mRNA,gene CCNI,0.24
same,mRNA,gene CD44,0.43
same,mRNA,gene CIRBP,0.54
same,mRNA,gene CLPTM1,0.41
same,mRNA,gene COL6A2,0.57
same,mRNA,gene CRTAP,0.33
same,PP242 mRNA,gene DDX51,0.17
same,PP242 mRNA,gene DGCR2,0.05
same,mRNA,gene ECSIT,0.26
same,PP242 mRNA,gene EEF1A1,0.29
same,mRNA,gene EEF1A2,0.40
same,mRNA,gene EEF1D,0.35
same,mRNA,gene EEF1G,0.15
same,mRNA,gene EEF2,0.76
same,mRNA,gene EIF3H,0.09
same,mRNA,gene EIF3L,0.21
same,mRNA,gene EIF4B,0.61
same,mRNA,gene EVPL,0.38
same,mRNA,gene FAM83H,0.33
same,mRNA,gene FAM128B,0.43
same,mRNA,gene FASN,0.30
same,mRNA,gene GLTSCR2,0.70
same,mRNA,gene GNB2L1,0.27
same,PP242 mRNA,gene GTPBP3,0.15
same,mRNA,gene HNRNPA1,0.27
same,mRNA,gene HSPA8,−0.40
same,mRNA,gene IMPDH2,0.21
same,mRNA,gene LAMA5,0.40
same,mRNA,gene LMF2,0.62
same,PP242 mRNA,gene MAPK6,0.10
same,PP242 mRNA,gene MAPKAPK2,−0.22
same,mRNA,gene MTA1,0.21
same,mRNA,gene NCLN,0.29
same,PP242 mRNA,gene NFATC21P,0.08
same,PP242 mRNA,gene NR2F1,0.87
same,mRNA,gene PABPC1,0.16
same,mRNA,gene PABPC4,0.40
same,mRNA,gene PACS1,0.45
same,mRNA,gene PFDN5,0.04
same,mRNA,gene PGLS,0.21
same,mRNA,gene PGM1,0.23
same,mRNA,gene PNKP,0.33
same,PP242 mRNA,gene PRKD3,−0.46
same,mRNA,gene PTGES2,0.17
same,mRNA,gene RABGGTB,0.20
same,PP242 mRNA,gene RBPJ,0.17
same,mRNA,gene RPL3,0.22
same,mRNA,gene RPL4,0.10
same,mRNA,gene RPL7,0.01
same,mRNA,gene RPL7A,0.15
same,mRNA,gene RPL9,−0.08
same,mRNA,gene RPL10,0.25
same,mRNA,gene RPL10A,0.14
same,mRNA,gene RPL11,0.14
same,mRNA,gene RPL12,0.12
same,mRNA,gene RPL13,0.26
same,mRNA,gene RPL13A,0.30
same,mRNA,gene RPL15,0.19
same,mRNA,gene RPL18A,0.23
same,mRNA,gene RPL19,0.11
same,mRNA,gene RPL21,−0.04
same,mRNA,gene RPL22,0.00
same,mRNA,gene RPL24,0.00
same,mRNA,gene RPL26,0.02
same,mRNA,gene RPL27,−0.13
same,mRNA,gene RPL27A,0.07
same,mRNA,gene RPL28,0.22
same,PP242 mRNA,gene RPL28,0.55
same,mRNA,gene RPL31,0.05
same,mRNA,gene RPL32,0.11
same,mRNA,gene RPL34,0.04
same,mRNA,gene RPL36A,−0.01
same,mRNA,gene RPL37A,0.01
same,mRNA,gene RPL39,−0.15
same,PP242 mRNA,gene RPL39,−0.42
same,mRNA,gene RPL41,−0.01
same,mRNA,gene RPLP0,0.12
same,mRNA,gene RPLP1,0.12
same,mRNA,gene RPLP2,0.14
same,mRNA,gene RPS2,0.20
same,mRNA,gene RPS3,0.24
same,mRNA,gene RPS3A,−0.06
same,mRNA,gene RPS4X,0.12
same,mRNA,gene RPS5,0.23
same,mRNA,gene RPS7,−0.04
same,mRNA,gene RPS9,0.34
same,mRNA,gene RPS12,0.04
same,mRNA,gene RPS13,−0.08
same,mRNA,gene RPS14,0.16
same,mRNA,gene RPS15,0.21
same,mRNA,gene RPS15A,0.07
same,mRNA,gene RPS19,0.23
same,mRNA,gene RPS20,−0.01
same,PP242 mRNA,gene RPS20,−0.10
same,mRNA,gene RPS21,0.09
same,mRNA,gene RPS25,−0.04
same,mRNA,gene RPS27,0.07
same,PP242 mRNA,gene RPS27,0.06
same,mRNA,gene RPS27A,−0.04
same,mRNA,gene RPS28,0.28
same,PP242 mRNA,gene SDCCAG10,−0.37
same,mRNA,gene SLC19A1,0.10
same,mRNA,gene TKT,0.33
same,mRNA,gene TPT1,0.01
same,mRNA,gene TSC2,0.21
same,mRNA,gene UBA52,0.18
same,PP242 mRNA,gene UBTD2,0.25
same,PP242 mRNA,gene UCHL5,−0.51
same,PP242 mRNA,gene VHL,0.43
same,mRNA,gene VIM,0.67
same,mRNA,gene YB1,0.24
